{
  "source": "patent US5378813A",
  "about": "“Meso-2,5-dimercapto-N,N,N'N'-tetramethyladipamide” (President and Fellows of Harvard College, priority 1992, dated 1995)",
  "key": {"DNase": {"target": "T1, DNase (Bos taurus, UniProt P00639)", "T1 construct": "purchased Sigma", "T1 sequence (P00639 23-282)": "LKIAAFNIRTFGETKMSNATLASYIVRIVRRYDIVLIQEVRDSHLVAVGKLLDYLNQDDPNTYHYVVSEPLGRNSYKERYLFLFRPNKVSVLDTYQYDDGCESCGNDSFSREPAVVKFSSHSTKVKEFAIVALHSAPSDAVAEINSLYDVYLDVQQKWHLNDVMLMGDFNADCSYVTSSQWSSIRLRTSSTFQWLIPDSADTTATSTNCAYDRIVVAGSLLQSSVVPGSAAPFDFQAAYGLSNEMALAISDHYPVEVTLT", "assay": "Rate of reduction (deactivation) of DNase", "type": "biochemical", "parameters": "kapp^DTA: unit not given here", "from_the_text": "(§1) In papain and creatine kinase, the disulfide being reduced is derived from an essential active site cysteine, (Smith et al., Biochemistry 1975, 14, 766-771) and the rate measured is the rate of reactivation of the modified protein. (Shaked et al., Biochemistry 1980, 19, 4156-4166.) DNase is deactivated by the reduction of an internal disulfide. (Shaked et al., Biochemistry 1980, 19, 4156-4166; and Price et al., J. Biol. Chem. 1969, 244, 929-932.)"}, "[1]": {"assay": "Reduction potential and equilibrium constant for reduction of ME^ox by the dithiol", "type": "physicochemical", "conditions": "for K, equilibrium constant: reduction of ME^ox with the dithiol in water, pH 7.0, 100 mM phosphate buffer; for ε° (reduction potential): relative to mercaptoethanol (-0.209 V)", "description": "We used the equilibrium constant between meso-DTA and DTT to determine the values of ε° and K(ME) of meso-DTA.\n(§2) After 4 h, a ^1 H NMR spectrum was obtained."}, "[2]": {"assay": "Solubility in phosphate buffer", "type": "physicochemical", "conditions": "reduced (dithiol) form, phosphate buffer pH 7.0, 100 mM phosphate, 25° C", "description": "^e The solubilities were determined in phosphate buffer (pH 7.0, 100"}, "[3]": {"assay": "Determination of pKa (absorbance at 238 nm against pH)", "type": "physicochemical", "conditions": "for fraction existing as the thiolate: pH 7.0; for pKa: aqueous buffers", "description": "The absorbance at 238 nm of meso-DTA (100 μL of an 8 mM ethanolic solution of meso-DTA) in various aqueous buffers (3 mL, 50 mM: 2,2-dimethylsuccinate, pH 6.0, 6.4, 6.8; Tris, pH 7.0, 7.3, 7.7, 8.0, 8.3, 8.7; glycine, pH 9.0, 9.5, 10.0) was plotted against pH. This curve was then compared with plots derived from theory."}, "[4]": {"assay": "Equilibration of dl-DTA and meso-DTA (1H NMR)", "type": "physicochemical", "conditions": "100 mM phosphate buffer, pD 7.0", "description": "dl-DTA^OX (2 mg in 0.5 mL of buffered D2 O (100 mM NaPO4, pD 7.0)) and meso-DTA (6 mg in 1.5 mL of buffered D2 O (100 mM NaPO4, pD 7.0)) were mixed in an NMR tube, and ^1 H NMR spectra were taken at various times. The value of Keq was calculated from the ^1 H NMR integrals."}, "[5]": {"assay": "Kinetics of reduction of mercaptoethanol disulfide by 1H NMR spectroscopy", "type": "physicochemical", "parameters": "kapp^DTA / kapp, apparent rate constant: unit not given here", "conditions": "for kapp, apparent rate constant: reduction of mercaptoethanol disulfide (ME^ox), pH 7.0, aqueous phosphate buffer (50 mM)", "description": "(§3) The thiol-disulfide interchange reaction was quenched by addition of 25 μL of a DCl solution (12 wt % in D2 O) in one tube after 2 min, in another tube after 4 min, and in another tube after 6 min. The same series of experiments was carried out with the meso-DTA solution instead of the DTT solution. The second-order rate constant was calculated from the integrals of the ^1 H NMR spectra."}, "[6]": {"conditions": "reference value to which all ε° are relative; cited from earlier work"}, "[7]": {"assay": "Kinetics of reduction of glutathione disulfide by 1H NMR spectroscopy", "type": "physicochemical", "parameters": "kapp^DTA: unit not given here", "conditions": "pH 7.0, 298 K", "description": "as §3"}, "papain-S-S-Me": {"target": "T2, papain-S-S-Me (Carica papaya, UniProt P00784)", "T2 construct": "purchased Boehringer Mannheim", "T2 sequence (P00784 134-345)": "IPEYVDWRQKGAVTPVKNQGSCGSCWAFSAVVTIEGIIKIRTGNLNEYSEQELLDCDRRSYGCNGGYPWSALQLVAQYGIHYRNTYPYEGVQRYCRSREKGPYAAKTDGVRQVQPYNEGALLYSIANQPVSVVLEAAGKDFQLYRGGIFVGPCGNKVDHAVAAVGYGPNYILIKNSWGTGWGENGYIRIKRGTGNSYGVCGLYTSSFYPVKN", "assay": "Kinetics of reactivation of papain-S-S-Me", "type": "biochemical", "parameters": "kapp^DTA: unit not given here", "description": "as §1\nThe papain-S-S-Me was prepared as described by Shaked et al., Biochemistry 1980, 19, 4156-4166. […] Chem. 1991, 56, 2332-2337."}, "[8]": {"assay": "Relative rate of reduction of disulfides, meso-DTA compared with DTT (summary and calculation)", "type": "physicochemical", "conditions": "pH 7.0", "from_the_text": "as §1\nThe difference between the calculated and the actual value for proteins could be due to steric interactions, because meso-DTA is a secondary thiol and DTT is a primary thiol. The difference in rates could also be due to the relative difference in hydrophobicities of the two compounds."}, "[9]": {"target": "T3, creatine kinase-S-S-glutathione (Oryctolagus cuniculus, UniProt P00563)", "T3 construct": "purchased Sigma", "T3 sequence (P00563 2-381 limits assumed)": "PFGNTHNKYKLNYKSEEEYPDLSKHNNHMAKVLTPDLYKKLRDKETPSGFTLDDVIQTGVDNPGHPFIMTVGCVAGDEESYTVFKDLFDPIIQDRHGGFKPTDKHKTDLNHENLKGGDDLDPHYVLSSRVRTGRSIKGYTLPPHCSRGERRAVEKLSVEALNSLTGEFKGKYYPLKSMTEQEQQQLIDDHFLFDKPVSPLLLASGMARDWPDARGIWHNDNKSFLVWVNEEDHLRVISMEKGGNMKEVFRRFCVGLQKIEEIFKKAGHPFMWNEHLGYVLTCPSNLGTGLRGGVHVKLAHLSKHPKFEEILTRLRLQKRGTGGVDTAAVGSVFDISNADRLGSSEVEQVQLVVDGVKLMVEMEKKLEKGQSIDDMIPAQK", "assay": "Kinetics of reactivation of creatine kinase-S-S-glutathione", "type": "biochemical", "parameters": "kapp^DTA: unit not given here", "from_the_text": "as §1\nThe solution of creatine kinase S-S-glutathione (the procedure was analogous to that of Walters and Gilbert, J. Biol. Chem. 1986, 261, 15372-15377) (10 μL) was diluted with deoxygenated aqueous buffer (pH 7.0, 0.1M imidazole, 2 mM EDTA, 2.5 mL). The diluted solution was added to two flasks (1.0 mL each). […] At various times, a 50-μL aliquot was withdrawn and added to an assay solution (950 μL, pH 6.0, 0.1M imidazole, 2 mM EDTA, 10 mM MgCl2, 2 mM ADP, 20 mM d-glucose, 2 mM NADP, 30 mM phosphocreatine, hexokinase (50 units/mL), glucose-6-phosphate dehydrogenase (35 units/mL)). The rate of increase in absorbance at 340 nm was recorded. (Gerhardt, Methods of Enzymatic Analysis, 3rd ed.; Bergmeyer, Ed.; Verlag Chemie: Weinheim, 1983; Vol. III, pp. 508-524.)"}, "[10]": {"assay": "Equilibrium experiment, meso-DTA with DTT^OX (1H NMR)", "type": "physicochemical", "conditions": "50 mM phosphate buffer, pD 7.0", "description": "as §2"}, "[11]": {"conditions": "reduction of an internal disulfide, aqueous solution, pH 7.0, 298 K"}, "[12]": {"conditions": "aqueous buffer, read-out: solubility"}, "[13]": {"conditions": "DMH data from Singh and Whitesides 1991"}, "[14]": {"conditions": "rate of reactivation, aqueous solution, pH 7.0, 298 K"}},
  "note": "Like-named read-outs stand apart in the source and are kept apart here.",
  "data": [
    {"compound": "O[C@H](CS)[C@H](O)CS", "note": "(racemic) [DTT, dithiothreitol, reference compound]", "values": [
      {"measurement": "kapp^DTT", "setting": "DNase; [11]", "value": 0.19, "unit": "M^1 g^-1"},
      {"measurement": "K, equilibrium constant", "setting": "[1]", "value": "10^5 M"},
      {"measurement": "ε° (reduction potential)", "setting": "[1]", "value": -0.356, "unit": "V"},
      {"measurement": "solubility", "setting": "[2]", "value": "high"},
      {"measurement": "fraction existing as the thiolate", "setting": "[3]", "value": "about 1%"}
    ]},
    {"compound": "CN(C)C(=O)[C@H](S)CC[C@@H](S)C(=O)N(C)C", "note": "(relative stereo) [dl-DTA]", "values": [
      {"measurement": "factor by which more reducing than meso-DTA", "setting": "[4]", "value": 10},
      {"measurement": "K, equilibrium constant", "setting": "[1]", "value": "10^4 M"},
      {"measurement": "ε° (reduction potential)", "setting": "[1]", "value": -0.328, "unit": "V"}
    ]},
    {"compound": "CN(C(=O)CS)N(C)C(=O)CS", "note": "[DMH, N,N'-dimethyl-N,N'-bis(mercaptoacetyl) hydrazine, reference compound]", "values": [
      {"measurement": "kapp, apparent rate constant", "setting": "[5]", "value": 0.52},
      {"measurement": "K, equilibrium constant", "setting": "[1]", "value": "10^3 M"},
      {"measurement": "ε° (reduction potential)", "setting": "[1]", "value": -0.300, "unit": "V"},
      {"measurement": "solubility", "setting": "[2]; [12]", "value": 250, "unit": "mM"},
      {"measurement": "pKa", "setting": "[3]; read-out: pKa (first thiol)", "value": 7.6},
      {"measurement": "pKa", "setting": "[3]; read-out: pKa (second thiol)", "value": 8.9}
    ]},
    {"compound": "OCCS", "note": "[ME, Mercaptoethanol]", "values": [
      {"measurement": "ε° of the reference mercaptoethanol", "setting": "[6]", "value": -0.209, "unit": "V"}
    ]},
    {"compound": "CN(C)C(=O)[C@H](S)CC[C@H](S)C(=O)N(C)C", "note": "[meso-DTA, meso-2,5-Dimercapto-N,N,N',N'-tetramethyladipamide]", "values": [
      {"measurement": "kapp^DTA / kapp^DTT", "setting": "[7]; glutathione disulfide", "value": 5.5},
      {"measurement": "kapp^DTA", "setting": "[7]; reduction of glutathione disulfide, aqueous solution", "value": 0.31},
      {"measurement": "kapp^DTA / kapp^DMH", "setting": "DNase; [13]", "value": 0.4},
      {"measurement": "kapp^DTA / kapp^DTT", "setting": "DNase; pH 7.0, 298 K", "value": 1.8},
      {"measurement": "kapp^DTA", "setting": "DNase; [11]", "value": 0.34},
      {"measurement": "kapp^DTA / kapp^DTT", "setting": "[5]; mercaptoethanol disulfide, pH 7.0, 298 K", "value": 7.7},
      {"measurement": "kapp^DTA / kapp^DMH", "setting": "[5]; mercaptoethanol disulfide, DMH data from Singh and Whitesides 1991", "value": 1.1},
      {"measurement": "kapp, apparent rate constant", "setting": "[5]", "value": 0.50},
      {"measurement": "kapp^DTA", "setting": "[5]; reduction of mercaptoethanol disulfide, aqueous solution, pH 7.0, 298 K", "value": 0.50},
      {"measurement": "Keq = [meso-DTA^OX][dl-DTA]/[meso-DTA][dl-DTA^OX]", "setting": "[4]", "value": 0.10},
      {"measurement": "kapp^DTA / kapp^DMH", "setting": "papain-S-S-Me; [13]", "value": 0.15},
      {"measurement": "kapp^DTA / kapp^DTT", "setting": "papain-S-S-Me; pH 7.0, 298 K", "value": 4.5},
      {"measurement": "kapp^DTA", "setting": "papain-S-S-Me; [14]", "value": 260},
      {"measurement": "factor by which the equilibrium constant for reduction of ME^OX is less than that of DTT", "setting": "[1]", "value": "10^2"},
      {"measurement": "less reducing than DTT by", "setting": "[1]", "value": "approximately 56 mV"},
      {"measurement": "K, equilibrium constant", "setting": "[1]", "value": "10^3 M"},
      {"measurement": "ε° (reduction potential)", "setting": "[1]", "value": -0.300, "unit": "V"},
      {"measurement": "times faster reduction of disulfide bonds than DTT", "setting": "[8]; aqueous solution", "value": "up to 8 times"},
      {"measurement": "relative rate of reduction compared with DTT, disulfide bond in proteins", "setting": "[8]; water", "value": "2-5 times"},
      {"measurement": "kapp^DTA / kapp^DMH", "setting": "[9]; [13]", "value": 0.5},
      {"measurement": "kapp^DTA / kapp^DTT", "setting": "[9]; pH 7.0, 298 K", "value": 3.4},
      {"measurement": "kapp^DTA", "setting": "[9]; [14]", "value": 78},
      {"measurement": "solubility", "setting": "[2]; [12]", "value": 80, "unit": "mM"},
      {"measurement": "Keq = [meso-DTA^OX][DTT]/[meso-DTA][DTT^OX]", "setting": "[10]", "value": 0.010},
      {"measurement": "pKa", "setting": "[3]; read-out: pKa (first thiol)", "value": "7.8 ± 0.2"},
      {"measurement": "pKa", "setting": "[3]; read-out: pKa (second thiol)", "value": "8.9 ± 0.2"},
      {"measurement": "fraction existing as the thiolate", "setting": "[3]", "value": "approximately 15%"}
    ]}
  ]
}
